From publication PMC5218480 (PLoS ONE, 2017) come the findings set out here.

This assay deals with MV-4-11 cells. Kind of assay: Gene expression microarray analysis (Affymetrix PrimeView) and GSEA. In kind it is cell-based, human. More on the design: RFU PODN (11730768_x_at) / Fold change /veh PODN (11730768_x_at) / RFU LINC00158 (11744669_a_at) / Fold change /veh LINC00158 (11744669_a_at) / RFU DUSP10 (11751237_a_at) / Fold change /veh DUSP10 (11751237_a_at) / RFU ID3 (11757404_x_at) / Fold change /veh ID3 (11757404_x_at) / RFU PLEKHG5 (11737974_s_at) / Fold change /veh PLEKHG5 (11737974_s_at) / RFU LRRC4B (11730491_at) / Fold change /veh LRRC4B (11730491_at) / RFU GIMAP4 (11747438_a_at) / Fold change /veh GIMAP4 (11747438_a_at) / RFU KRT8 (11758183_x_at) / Fold change /veh KRT8 (11758183_x_at) / RFU CNN1 (11734310_a_at) / Fold change /veh CNN1 (11734310_a_at) / RFU VPS37D (11726825_at) / Fold change /veh VPS37D (11726825_at) / RFU C10orf10 (11716522_x_at) / Fold change /veh C10orf10 (11716522_x_at) / RFU KIR2DL2 /// KIR2DL4 /// KIR2DL5A /// KIR2DL5B /// KIR2DS1 /// KIR2DS2 /// KIR2DS3 /// KIR2DS4 /// KIR3DL3 /// KIR3DL3 /// KIR3DS1 (11738374_at) / Fold change /veh KIR2DL2 /// KIR2DL4 /// KIR2DL5A /// KIR2DL5B /// KIR2DS1 /// KIR2DS2 /// KIR2DS3 /// KIR2DS4 /// KIR3DL3 /// KIR3DL3 /// KIR3DS1 (11738374_at) / RFU C1QL1 (11718748_at) / Fold change /veh C1QL1 (11718748_at) / RFU TMPRSS4 (11747572_a_at) / Fold change /veh TMPRSS4 (11747572_a_at) / RFU HAMP (11756126_x_at) / Fold change /veh HAMP (11756126_x_at) / RFU RNFT2 (11725882_a_at) / Fold change /veh RNFT2 (11725882_a_at) / RFU NR4A2 (11747474_a_at) / Fold change /veh NR4A2 (11747474_a_at) / RFU ABCC12 (11746883_a_at) / Fold change /veh ABCC12 (11746883_a_at) / RFU TMEM136 (11760407_x_at) / Fold change /veh TMEM136 (11760407_x_at) / RFU CLDN22 /// WWC2 (11732394_at) / Fold change /veh CLDN22 /// WWC2 (11732394_at) / RFU HLA-DPB1 (11760878_x_at) / Fold change /veh HLA-DPB1 (11760878_x_at) / RFU SPINT1 (11716480_a_at) / Fold change /veh SPINT1 (11716480_a_at) / RFU GAP43 (11754022_s_at) / Fold change /veh GAP43 (11754022_s_at) / RFU A4GNT (11735810_at) / Fold change /veh A4GNT (11735810_at) / RFU PRB3 (11715151_x_at) / Fold change /veh PRB3 (11715151_x_at) / RFU TUBB4B (11761932_at) / Fold change /veh TUBB4B (11761932_at) / RFU CAPN14 (11732068_a_at) / Fold change /veh CAPN14 (11732068_a_at) / RFU TMCC2 (11721928_a_at) / Fold change /veh TMCC2 (11721928_a_at) / RFU IRGQ (11745062_a_at) / Fold change /veh IRGQ (11745062_a_at) / RFU FAM174B (11720279_a_at) / Fold change /veh FAM174B (11720279_a_at) / RFU TMPRSS4 (11748680_a_at) / Fold change /veh TMPRSS4 (11748680_a_at) / RFU FAM212B (11763350_a_at) / Fold change /veh FAM212B (11763350_a_at) / RFU PLEKHG5 (11743358_a_at) / Fold change /veh PLEKHG5 (11743358_a_at) / RFU ZSCAN30 (11745921_a_at) / Fold change /veh ZSCAN30 (11745921_a_at) / RFU CMKLR1 (11741424_a_at) / Fold change /veh CMKLR1 (11741424_a_at) / RFU LOC101060620 /// MAPK8IP1 (11723275_at) / Fold change /veh LOC101060620 /// MAPK8IP1 (11723275_at) / RFU SPTSSB (11747773_x_at) / Fold change /veh SPTSSB (11747773_x_at) / RFU PRSS12 (11739890_at) / Fold change /veh PRSS12 (11739890_at) / RFU BIN1 (11741810_x_at) / Fold change /veh BIN1 (11741810_x_at) / RFU WNT11 (11732464_a_at) / Fold change /veh WNT11 (11732464_a_at) / RFU C10orf10 (11716521_a_at) / Fold change /veh C10orf10 (11716521_a_at) / RFU C5orf56 (11738089_at) / Fold change /veh C5orf56 (11738089_at) / RFU CYB561 (11721691_x_at) / Fold change /veh CYB561 (11721691_x_at) / RFU ANKRD19P (11752326_a_at) / Fold change /veh ANKRD19P (11752326_a_at) / RFU OR2T12 /// OR2T33 /// OR2T8 (11738714_s_at) / Fold change /veh OR2T12 /// OR2T33 /// OR2T8 (11738714_s_at) / RFU VCAN (11748164_a_at) / Fold change /veh VCAN (11748164_a_at) / RFU JSRP1 (11732532_at) / Fold change /veh JSRP1 (11732532_at) / RFU KRTAP10-11 (11738290_x_at) / Fold change /veh KRTAP10-11 (11738290_x_at) / RFU MYO3A (11730013_a_at) / Fold change /veh MYO3A (11730013_a_at) / RFU EBF3 (11725865_a_at) / Fold change /veh EBF3 (11725865_a_at) / RFU CAMK2N1 (11719241_x_at) / Fold change /veh CAMK2N1 (11719241_x_at) / RFU C5orf56 (11738088_a_at) / Fold change /veh C5orf56 (11738088_a_at) / RFU OLFML3 (11715873_a_at) / Fold change /veh OLFML3 (11715873_a_at) / RFU LOC100653217 /// NTM (11731650_a_at) / Fold change /veh LOC100653217 /// NTM (11731650_a_at) / RFU MAPK11 (11762145_a_at) / Fold change /veh MAPK11 (11762145_a_at) / RFU FIZ1 (11724087_x_at) / Fold change /veh FIZ1 (11724087_x_at) / RFU OASL (11726364_x_at) / Fold change /veh OASL (11726364_x_at) / RFU SOX15 (11748057_x_at) / Fold change /veh SOX15 (11748057_x_at) / RFU CD79A (11719716_a_at) / Fold change /veh CD79A (11719716_a_at) / RFU HIST1H1D (11736915_at) / Fold change /veh HIST1H1D (11736915_at) / RFU CASKIN2 (11723855_a_at) / Fold change /veh CASKIN2 (11723855_a_at) / RFU LOC730098 (11760151_x_at) / Fold change /veh LOC730098 (11760151_x_at) / RFU OR4N2 (11742367_at) / Fold change /veh OR4N2 (11742367_at) / RFU PRRT2 (11749266_a_at) / Fold change /veh PRRT2 (11749266_a_at) / RFU SNX32 (11753110_a_at) / Fold change /veh SNX32 (11753110_a_at) / RFU CDHR5 (11726645_a_at) / Fold change /veh CDHR5 (11726645_a_at) / RFU RCAN1 (11760418_a_at) / Fold change /veh RCAN1 (11760418_a_at) / RFU FAM167A (11723789_a_at) / Fold change /veh FAM167A (11723789_a_at) / RFU FAM26E (11764081_at) / Fold change /veh FAM26E (11764081_at) / RFU ISYNA1 (11749810_s_at) / Fold change /veh ISYNA1 (11749810_s_at) / RFU ACY1 (11761880_at) / Fold change /veh ACY1 (11761880_at) / RFU 11764098_at / Fold change /veh 11764098_at / RFU SAMD14 (11745864_x_at) / Fold change /veh SAMD14 (11745864_x_at) / RFU NPB (11741838_a_at) / Fold change /veh NPB (11741838_a_at) / RFU TMPRSS6 (11731388_a_at) / Fold change /veh TMPRSS6 (11731388_a_at) / RFU KRTAP10-2 (11738614_at) / Fold change /veh KRTAP10-2 (11738614_at) / RFU ARHGAP8 /// PRR5-ARHGAP8 (11727945_x_at) / Fold change /veh ARHGAP8 /// PRR5-ARHGAP8 (11727945_x_at) / RFU KRTAP5-7 /// NADSYN1 (11734609_at) / Fold change /veh KRTAP5-7 /// NADSYN1 (11734609_at) / RFU RASL12 (11751679_a_at) / Fold change /veh RASL12 (11751679_a_at) / RFU CDKN2B (11736163_a_at) / Fold change /veh CDKN2B (11736163_a_at) / RFU PRF1 (11729649_at) / Fold change /veh PRF1 (11729649_at) / RFU, ZNF638 /// ZNF638-IT1 / Fold change vs veh, ZNF638 /// ZNF638-IT1 / RFU, PANK3 / Fold change vs veh, PANK3 / RFU, SH3YL1 / Fold change vs veh, SH3YL1 / RFU, ZEB2 / Fold change vs veh, ZEB2 / RFU, NRIP1 / Fold change vs veh, NRIP1 / RFU, PTTG1IP / Fold change vs veh, PTTG1IP / RFU, CAPN2 / Fold change vs veh, CAPN2 / RFU, MED14 / Fold change vs veh, MED14 / RFU, SNORA58 / Fold change vs veh, SNORA58 / RFU, C1orf63 / Fold change vs veh, C1orf63 / RFU, LRRFIP1 / Fold change vs veh, LRRFIP1 / RFU, NDUFAF7 / Fold change vs veh, NDUFAF7 / RFU, SLC12A2 / Fold change vs veh, SLC12A2 / RFU, IBTK / Fold change vs veh, IBTK / RFU, ESF1 / Fold change vs veh, ESF1 / Fold change vs veh, TMEM50B / RFU, TAOK1 / Fold change vs veh, TAOK1 / RFU, ACBD3 / Fold change vs veh, ACBD3 / RFU, TMA16 / Fold change vs veh, TMA16 / RFU, RWDD3 / Fold change vs veh, RWDD3 / RFU, BCAT1 / Fold change vs veh, BCAT1 / RFU, EDEM3 / Fold change vs veh, EDEM3 / RFU, TMEM33 / Fold change vs veh, TMEM33 / RFU, WDR75 / Fold change vs veh, WDR75 / RFU, AHCTF1 / Fold change vs veh, AHCTF1 / RFU, TFRC / Fold change vs veh, TFRC / RFU, ZDHHC17 / Fold change vs veh, ZDHHC17 / RFU, NOM1 / Fold change vs veh, NOM1 / RFU, ARL8B / Fold change vs veh, ARL8B / RFU, ZBTB11 / Fold change vs veh, ZBTB11 / RFU, TAMM41 / Fold change vs veh, TAMM41 / RFU, KIAA1704 /// LOC100996395 / Fold change vs veh, KIAA1704 /// LOC100996395 / RFU, ING1 / Fold change vs veh, ING1 / RFU, TRMT61B / Fold change vs veh, TRMT61B / RFU, FUBP3 / Fold change vs veh, FUBP3 / RFU, TP53 / Fold change vs veh, TP53 / RFU, TNKS2 / Fold change vs veh, TNKS2 / RFU, ZFP14 / Fold change vs veh, ZFP14 / RFU, ACTR2 / Fold change vs veh, ACTR2 / RFU, PPP3R1 / Fold change vs veh, PPP3R1 / RFU, PIK3R1 / Fold change vs veh, PIK3R1 / RFU, HNRNPA1 / Fold change vs veh, HNRNPA1 / RFU, RNF170 / Fold change vs veh, RNF170 / RFU, ZNF28 / Fold change vs veh, ZNF28 / RFU, RNGTT / Fold change vs veh, RNGTT / RFU, OGT / Fold change vs veh, OGT / RFU, BRD1 / Fold change vs veh, BRD1 / RFU, MARS / Fold change vs veh, MARS / RFU, ZNF655 / Fold change vs veh, ZNF655 / RFU, FAHD1 / Fold change vs veh, FAHD1 / RFU, BDP1 / Fold change vs veh, BDP1 / RFU, LRRCC1 / Fold change vs veh, LRRCC1 / RFU, ARID1A / Fold change vs veh, ARID1A / RFU, ZNF146 / Fold change vs veh, ZNF146 / RFU, ZNF330 / Fold change vs veh, ZNF330 / RFU, GPN3 / Fold change vs veh, GPN3 / RFU, C9orf123 / Fold change vs veh, C9orf123 / RFU, N4BP2L2 / Fold change vs veh, N4BP2L2 / RFU, ARFIP1 / Fold change vs veh, ARFIP1 / RFU, FAM179B / Fold change vs veh, FAM179B / RFU, BCL10 / Fold change vs veh, BCL10 / RFU, UHRF1BP1L / Fold change vs veh, UHRF1BP1L / RFU, BET1 / Fold change vs veh, BET1 / RFU, CNOT2 / Fold change vs veh, CNOT2 / RFU, ZNF268 / Fold change vs veh, ZNF268 / Fold change vs veh, ZNF507 / RFU, DGCR2 / Fold change vs veh, DGCR2 / RFU, WDSUB1 / Fold change vs veh, WDSUB1 / Fold change vs veh, HSP90B1 /// MIR3652 / RFU, ADSS / Fold change vs veh, ADSS / RFU, GK / Fold change vs veh, GK / RFU, ZNF148 / Fold change vs veh, ZNF148 / RFU, TAF9 / Fold change vs veh, TAF9 / RFU, SLC1A5 / Fold change vs veh, SLC1A5 / RFU, SLMO2 / Fold change vs veh, SLMO2 / RFU, ABCC4 / Fold change vs veh, ABCC4 / RFU, LOC101060439 /// RAP1B / Fold change vs veh, LOC101060439 /// RAP1B / RFU, RFX7 / Fold change vs veh, RFX7 / RFU, GTPBP10 / Fold change vs veh, GTPBP10 / RFU, CNEP1R1 / Fold change vs veh, CNEP1R1 / RFU, BIVM-ERCC5 /// ERCC5 / Fold change vs veh, BIVM-ERCC5 /// ERCC5 / RFU, ILF3 / Fold change vs veh, ILF3 / RFU 11762660_at / Fold change /veh 11762660_at / RFU VCAN (11757783_s_at) / Fold change /veh VCAN (11757783_s_at) / RFU DDX43 (11728927_at) / Fold change /veh DDX43 (11728927_at) / RFU KRT8 (11758188_x_at) / Fold change /veh KRT8 (11758188_x_at) / RFU NKD1 (11759106_at) / Fold change /veh NKD1 (11759106_at) / RFU SRD5A1 (11742802_a_at) / Fold change /veh SRD5A1 (11742802_a_at) / RFU TPSAB1 /// TPSB2 (11721975_s_at) / Fold change /veh TPSAB1 /// TPSB2 (11721975_s_at) / RFU GSTM3 (11746129_a_at) / Fold change /veh GSTM3 (11746129_a_at) / RFU IL23R (11737362_x_at) / Fold change /veh IL23R (11737362_x_at) / RFU TMEM51 (11727254_a_at) / Fold change /veh TMEM51 (11727254_a_at) / RFU PIWIL2 (11732686_x_at) / Fold change /veh PIWIL2 (11732686_x_at) / RFU ORM1 (11744905_x_at) / Fold change /veh ORM1 (11744905_x_at) / RFU CCDC152 (11743942_at) / Fold change /veh CCDC152 (11743942_at) / RFU ECM1 (11717891_a_at) / Fold change /veh ECM1 (11717891_a_at) / RFU IL23R (11748794_a_at) / Fold change /veh IL23R (11748794_a_at) / RFU TNFAIP8L3 (11732012_x_at) / Fold change /veh TNFAIP8L3 (11732012_x_at) / RFU MBOAT4 (11741988_at) / Fold change /veh MBOAT4 (11741988_at) / RFU 11764193_at / Fold change /veh 11764193_at / RFU TMEM53 (11763286_at) / Fold change /veh TMEM53 (11763286_at) / RFU MAGEB2 (11727129_at) / Fold change /veh MAGEB2 (11727129_at) / RFU TMEM200A (11744735_a_at) / Fold change /veh TMEM200A (11744735_a_at) / RFU CCDC152 (11751479_a_at) / Fold change /veh CCDC152 (11751479_a_at) / RFU FAM211A (11726209_a_at) / Fold change /veh FAM211A (11726209_a_at) / RFU RGS16 (11746705_a_at) / Fold change /veh RGS16 (11746705_a_at) / RFU VCAN (11755009_s_at) / Fold change /veh VCAN (11755009_s_at) / RFU RHOB (11743442_s_at) / Fold change /veh RHOB (11743442_s_at) / RFU RGS16 (11720943_a_at) / Fold change /veh RGS16 (11720943_a_at) / RFU RGS16 (11720944_at) / Fold change /veh RGS16 (11720944_at) / RFU, VPS4B / Fold change vs veh, VPS4B / RFU, CREB1 / Fold change vs veh, CREB1 / RFU, DNAJC13 / Fold change vs veh, DNAJC13 / RFU, GNAQ / Fold change vs veh, GNAQ / RFU, CDK5R1 / Fold change vs veh, CDK5R1 / RFU, ZRANB3 / Fold change vs veh, ZRANB3 / RFU, CUL4A / Fold change vs veh, CUL4A / RFU, CCNY / Fold change vs veh, CCNY / RFU, UFL1 / Fold change vs veh, UFL1 / RFU, COG3 / Fold change vs veh, COG3 / RFU, DIAPH2 / Fold change vs veh, DIAPH2 / RFU, SKA2 / Fold change vs veh, SKA2 / RFU, AFF3 / Fold change vs veh, AFF3 / RFU, LMF1 / Fold change vs veh, LMF1 / RFU, IPO11 / Fold change vs veh, IPO11 / RFU, DFFB / Fold change vs veh, DFFB / RFU, FOXP1 / Fold change vs veh, FOXP1 / RFU, CARD8 / Fold change vs veh, CARD8 / RFU, STRN3 / Fold change vs veh, STRN3 / RFU, ADK / Fold change vs veh, ADK / RFU, RASSF2 / Fold change vs veh, RASSF2 / RFU, WIPF1 / Fold change vs veh, WIPF1 / RFU, LARP1B / Fold change vs veh, LARP1B / RFU, RASA1 / Fold change vs veh, RASA1 / RFU, RB1 / Fold change vs veh, RB1 / RFU, PPFIA1 / Fold change vs veh, PPFIA1 / RFU, MAT2A / Fold change vs veh, MAT2A / RFU, CCT5 / Fold change vs veh, CCT5 / RFU, WDR92 / Fold change vs veh, WDR92 / RFU, CUX1 / Fold change vs veh, CUX1 / RFU, TTC7A / Fold change vs veh, TTC7A / RFU, TMEM135 / Fold change vs veh, TMEM135 / RFU, DEPTOR / Fold change vs veh, DEPTOR / RFU, CPM / Fold change vs veh, CPM / RFU, DNAJB6 / Fold change vs veh, DNAJB6 / RFU, CACNA2D3 / Fold change vs veh, CACNA2D3 / RFU, DTX4 / Fold change vs veh, DTX4 / RFU, TFCP2 / Fold change vs veh, TFCP2 / RFU, GMCL1 /// GMCL1P1 / Fold change vs veh, GMCL1 /// GMCL1P1 / RFU, AEBP2 / Fold change vs veh, AEBP2 / RFU, SNHG1 /// SNORD22 /// SNORD25 /// SNORD26 /// SNORD27 /// SNORD28 /// SNORD29 /// SNORD31 / Fold change vs veh, SNHG1 /// SNORD22 /// SNORD25 /// SNORD26 /// SNORD27 /// SNORD28 /// SNORD29 /// SNORD31 / Fold change (Aza/veh), C12orf56 (ProbeSet 11735607_a_at) / Fold change (ACY-1035/veh), C12orf56 (ProbeSet 11735607_a_at) / Fold change (Aza/veh), FGFR1OP (ProbeSet 11751329_s_at) / Fold change (ACY-1035/veh), FGFR1OP (ProbeSet 11751329_s_at) / Fold change (Aza/veh), VPS36 (ProbeSet 11739960_a_at) / Fold change (ACY-1035/veh), VPS36 (ProbeSet 11739960_a_at) / RFU SYPL1 (11715823_x_at) / Fold change /veh SYPL1 (11715823_x_at) / RFU IGFBP7 (11715501_s_at) / Fold change /veh IGFBP7 (11715501_s_at) / RFU REEP3 (11722064_at) / Fold change /veh REEP3 (11722064_at) / RFU IGLL1 (11728026_x_at) / Fold change /veh IGLL1 (11728026_x_at): dose or concentration left out as unconfirmed. The following applies: MV-4-11 cells, 48 hours.

On to `Nc1ccc(-c2cccs2)cc1NC(=O)c1ccc2c(c1)cc(C1CC1)n2CCN1CCOCC1` [ACY-1035], for which the “RFU CAPN14 (11732068_a_at)” value is reported as 10.99 RFU.
